Results taken from patent publication US20250051337A1 (priority 2021, published 2025).
pIC50: −log10 of the molar value.

How the values were obtained:
STK4 = STK4 (Homo sapiens (Human), UniProt Q13043); assay: ADP-Glo kinase assay, STK4; format: biochemical; settings: ADP-Glo, 50 μM ATP; read-out: STK4 IC50
Description: (§1) The STK3 kinase assay was performed in 5 μL reaction buffer containing 50 ng recombinant human STK3 protein (full length, SignalChem #S24-10G; Richmond, Canada), 250 μg/mL myelin basic protein (Sigma-Aldrich #M1891; St. Louis, MO, USA), and 50 μM ATP (Sigma-Aldrich #A7699). The STK4 kinase assay was performed in 5 μL reaction buffer containing 50 ng recombinant human STK4 protein (full length, SignalChem #S25-10G), 300 μg/mL Axltide (SignalChem #A16-58), and 50 μM ATP. […] Three experiments were performed, each in triplicate.

STK3 = STK3 (Homo sapiens (Human), UniProt Q13188); assay: ADP-Glo kinase assay, STK3; format: biochemical; settings: ADP-Glo, 50 μM ATP; read-out: STK3 IC50
Chain of STK3 (Q13188 whole entry): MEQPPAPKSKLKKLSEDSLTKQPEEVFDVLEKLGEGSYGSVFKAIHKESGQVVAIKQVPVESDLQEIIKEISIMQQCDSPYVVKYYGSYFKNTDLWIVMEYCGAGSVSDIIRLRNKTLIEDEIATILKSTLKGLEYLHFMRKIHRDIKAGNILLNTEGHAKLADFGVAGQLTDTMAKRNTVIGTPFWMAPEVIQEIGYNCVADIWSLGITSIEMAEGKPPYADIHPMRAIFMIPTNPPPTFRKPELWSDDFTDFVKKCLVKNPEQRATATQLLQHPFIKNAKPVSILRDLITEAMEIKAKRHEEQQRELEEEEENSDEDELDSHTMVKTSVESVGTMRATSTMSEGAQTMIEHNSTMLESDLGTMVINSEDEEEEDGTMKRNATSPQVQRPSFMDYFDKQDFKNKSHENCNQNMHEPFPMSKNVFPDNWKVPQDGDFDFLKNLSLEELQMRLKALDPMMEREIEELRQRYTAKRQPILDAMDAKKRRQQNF
Description: as §1

Chain of STK4 (Q13043 whole entry): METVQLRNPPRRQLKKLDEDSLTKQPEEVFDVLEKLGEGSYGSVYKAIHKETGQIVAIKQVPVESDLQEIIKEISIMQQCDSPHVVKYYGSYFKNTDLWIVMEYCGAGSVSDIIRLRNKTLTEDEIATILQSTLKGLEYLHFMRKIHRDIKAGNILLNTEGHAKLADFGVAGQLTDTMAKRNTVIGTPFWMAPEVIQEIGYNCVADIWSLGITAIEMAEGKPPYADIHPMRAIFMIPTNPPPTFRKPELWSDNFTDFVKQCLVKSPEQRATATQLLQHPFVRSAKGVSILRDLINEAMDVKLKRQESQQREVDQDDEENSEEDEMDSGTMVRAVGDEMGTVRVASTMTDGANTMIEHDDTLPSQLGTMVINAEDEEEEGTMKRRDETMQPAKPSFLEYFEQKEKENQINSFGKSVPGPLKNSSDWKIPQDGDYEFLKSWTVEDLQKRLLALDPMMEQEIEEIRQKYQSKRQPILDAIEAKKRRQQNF

Row | Compound | pIC50 (STK4) | pIC50 (STK3)
1 | CCCNc1ncnc2[nH]cc(-c3cccc(Cl)c3)c12 [Compound 50, 5-(3-chlorophenyl)-N-propyl-7H-pyrrolo[2,3-d]pyrimidin-4-amine] | > 6.00 | > 6.00
2 | CCN(CC)c1ncnc2[nH]cc(-c3cccc(Cl)c3)c12 [Compound 51, 5-(3-chlorophenyl)-N,N-diethyl-7H-pyrrolo[2,3-d]pyrimidin-4-amine] | > 6.00 | > 6.00
3 | CC(C)CNc1ncnc2[nH]cc(-c3cccc(Cl)c3)c12 [Compound 52, 5-(3-chlorophenyl)-N-isobutyl-7H-pyrrolo[2,3-d]pyrimidin-4-amine] | > 6.00 | > 6.00
4 | C=CCNc1ncnc2[nH]cc(-c3cccc(Cl)c3)c12 [Compound 53, N-allyl-5-(3-chlorophenyl)-7H-pyrrolo[2,3-d]pyrimidin-4-amine] | > 6.00 | > 6.00
5 | OCCNc1ncnc2[nH]cc(-c3cccc(Cl)c3)c12 [Compound 54, 2-((5-(3-chlorophenyl)-7H-pyrrolo[2,3-d]pyrimidin-4-yl)amino)ethan-1-ol] | > 6.00 | > 6.00
6 | FC(F)(F)CNc1ncnc2[nH]cc(-c3cccc(Cl)c3)c12 [Compound 55, 5-(3-chlorophenyl)-N-(2,2,2-trifluoroethyl)-7H-pyrrolo[2,3-d]pyrimidin-4-amine] | > 6.00 | 5.30 to 6.00
7 | CN(C)CCNc1ncnc2[nH]cc(-c3cccc(Cl)c3)c12 [Compound 57, N1-(5-(3-chlorophenyl)-7H-pyrrolo[2,3-d]pyrimidin-4-yl)-N2,N2-dimethylethane-1,2-diamine] | < 5.30 | < 5.30
8 | COCCNc1ncnc2[nH]cc(-c3cccc(Cl)c3)c12 [Compound 58, 5-(3-chlorophenyl)-N-(2-methoxyethyl)-7H-pyrrolo[2,3-d]pyrimidin-4-amine] | < 5.30 | < 5.30
9 | Clc1cccc(-c2c[nH]c3ncnc(NCc4ccn[nH]4)c23)c1 [Compound 59, N-((1H-pyrazol-5-yl)methyl)-5-(3-chlorophenyl)-7H-pyrrolo[2,3-d]pyrimidin-4-amine] | > 6.00 | 5.30 to 6.00
10 | Clc1cccc(-c2c[nH]c3ncnc(NCC4CCOCC4)c23)c1 [Compound 61, 5-(3-chlorophenyl)-N-((tetrahydro-2H-pyran-4-yl)methyl)-7H-pyrrolo[2,3-d]pyrimidin-4-amine] | > 6.00 | 5.30 to 6.00
11 | Clc1cccc(-c2c[nH]c3ncnc(NCc4ccoc4)c23)c1 [Compound 62, 5-(3-chlorophenyl)-N-(furan-3-ylmethyl)-7H-pyrrolo[2,3-d]pyrimidin-4-amine] | > 6.00 | > 6.00
12 | Clc1cccc(-c2c[nH]c3ncnc(NCCc4ccccn4)c23)c1 [Compound 63, 5-(3-chlorophenyl)-N-(2-(pyridin-2-yl)ethyl)-7H-pyrrolo[2,3-d]pyrimidin-4-amine] | > 6.00 | 5.30 to 6.00
13 | CC(C)CCNc1ncnc2[nH]cc(-c3cccc(Cl)c3)c12 [Compound 64, 5-(3-chlorophenyl)-N-isopentyl-7H-pyrrolo[2,3-d]pyrimidin-4-amine] | 5.30 to 6.00 | 5.30 to 6.00
14 | CN1CCC(Nc2ncnc3[nH]cc(-c4cccc(Cl)c4)c23)CC1 [Compound 65, 5-(3-chlorophenyl)-N-(1-methylpiperidin-4-yl)-7H-pyrrolo[2,3-d]pyrimidin-4-amine] | 5.30 to 6.00 | 5.30 to 6.00
15 | Clc1cccc(-c2c[nH]c3ncnc(NCCN4CCOCC4)c23)c1 [Compound 66, 5-(3-chlorophenyl)-N-(2-morpholinoethyl)-7H-pyrrolo[2,3-d]pyrimidin-4-amine] | 5.30 to 6.00 | 5.30 to 6.00
16 | COc1ccccc1CNc1ncnc2[nH]cc(-c3cccc(Cl)c3)c12 [Compound 68, 5-(3-chlorophenyl)-N-(2-methoxybenzyl)-7H-pyrrolo[2,3-d]pyrimidin-4-amine] | 5.30 to 6.00 | 5.30 to 6.00
17 | Clc1cccc(-c2c[nH]c3ncnc(NCc4ccncc4)c23)c1 [Compound 71, 5-(3-chlorophenyl)-N-(pyridin-4-ylmethyl)-7H-pyrrolo[2,3-d]pyrimidin-4-amine] | 5.30 to 6.00 | < 5.30
18 | COc1ccc(CCNc2ncnc3[nH]cc(-c4cccc(Cl)c4)c23)cc1OC [Compound 72, 5-(3-chlorophenyl)-N-(3,4-dimethoxyphenethyl)-7H-pyrrolo[2,3-d]pyrimidin-4-amine] | 5.30 to 6.00 | < 5.30
19 | COc1ccc(CNc2ncnc3[nH]cc(-c4cccc(Cl)c4)c23)c(OC)c1 [Compound 73, 5-(3-chlorophenyl)-N-(2,4-dimethoxybenzyl)-7H-pyrrolo[2,3-d]pyrimidin-4-amine] | 5.30 to 6.00 | < 5.30
20 | COc1cccc(CNc2ncnc3[nH]cc(-c4cccc(Cl)c4)c23)c1 [Compound 74, 5-(3-chlorophenyl)-N-(3-methoxybenzyl)-7H-pyrrolo[2,3-d]pyrimidin-4-amine] | < 5.30 | < 5.30
21 | Clc1cccc(-c2c[nH]c3ncnc(NCc4cnco4)c23)c1 [Compound 75, 5-(3-chlorophenyl)-N-(oxazol-5-ylmethyl)-7H-pyrrolo[2,3-d]pyrimidin-4-amine] | < 5.30 | < 5.30
22 | Clc1cccc(-c2c[nH]c3ncnc(NCc4cnc[nH]4)c23)c1 [Compound 76, N-((1H-imidazol-5-yl)methyl)-5-(3-chlorophenyl)-7H-pyrrolo[2,3-d]pyrimidin-4-amine] | < 5.30 | < 5.30
23 | Clc1cccc(-c2c[nH]c3ncnc(NCc4nccs4)c23)c1 [Compound 79, 5-(3-chlorophenyl)-N-(thiazol-2-ylmethyl)-7H-pyrrolo[2,3-d]pyrimidin-4-amine] | < 5.30 | < 5.30
24 | CCN1CCCC1CNc1ncnc2[nH]cc(-c3cccc(Cl)c3)c12 (stereo not shown) [Compound 80, 5-(3-chlorophenyl)-N-((1-ethylpyrrolidin-2-yl)methyl)-7H-pyrrolo[2,3-d]pyrimidin-4-amine] | < 5.30 | < 5.30
25 | Clc1cccc(-c2c[nH]c3ncnc(N4CCC(N5CCCCC5)CC4)c23)c1 [Compound 81, 4-([1,4′-bipiperidin]-1′-yl)-5-(3-chlorophenyl)-7H-pyrrolo[2,3-d]pyrimidine] | 5.30 to 6.00 | < 5.30
26 | CCN(CC)CCNc1ncnc2[nH]cc(-c3cccc(Cl)c3)c12 [Compound 82, N1-(5-(3-chlorophenyl)-7H-pyrrolo[2,3-d]pyrimidin-4-yl)-N2,N2-diethylethane-1,2-diamine] | < 5.30 | < 5.30
27 | Clc1cccc(-c2c[nH]c3ncnc(NCCN4CCCC4)c23)c1 [Compound 83, 5-(3-chlorophenyl)-N-(2-(pyrrolidin-1-yl)ethyl)-7H-pyrrolo[2,3-d]pyrimidin-4-amine] | < 5.30 | < 5.30
28 | Clc1cccc(-c2c[nH]c3ncnc(NCC4CCCCCC4)c23)c1 [Compound 84, 5-(3-chlorophenyl)-N-(cycloheptylmethyl)-7H-pyrrolo[2,3-d]pyrimidin-4-amine] | < 5.30 | < 5.30
29 | Cc1ccc(CNc2ncnc3[nH]cc(-c4cccc(Cl)c4)c23)cc1C [Compound 85, 5-(3-chlorophenyl)-N-(3,4-dimethylbenzyl)-7H-pyrrolo[2,3-d]pyrimidin-4-amine] | < 5.30 | < 5.30
